Holding throughout (experiment): NCI tumour cell line growth inhibition, 48 h
In assay [1] the test system is HOP-92 NSCLC.
Assay [2] concerns IGROV1 ovarian.
Assay [3] concerns K-562 leukemia.
The subject of assay [4] is M14 melanoma.
Assay [5] has as its system RPMI-8226 leukemia.
Assay [6] deals with SF-268 CNS.
Assay [7] deals with SF-295 CNS.
For assay [8], the system named is SF-539 CNS.
In assay [9] the test system is SN12C renal.
Assay [10] deals with SNB-19 CNS.
Assay [11] has as its system SR leukemia.

The values that follow come from PubChem BioAssay (NCI).

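1) Cells in 96-well plates. 2) Compound, 48 h, 5 concentrations. 3) Linear interpolation between surrounding doses. 4) Unreached endpoint = highest concentration. Abbreviation: GI50, concentration required for 50% inhibition of growth. TGI is the concentration that stops growth completely.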

Consider `CCCCCCCCCCCCCCCCOC[C@@H](COC(c1ccccc1)(c1ccccc1)c1ccccc1)O[P+](=S)OC` (some centres undefined), for which the TGI came out at 26.2 µM in assay [1]; 36 µM in assay [2]; 41.8 µM in assay [3]; 14.5 µM in assay [4]; 14.7 µM in assay [5]; 28.6 µM in assay [6]. Further, the TGI was 6.88 µM in [7]; 9.45 µM in [8]; 21.8 µM in [9]; 21.3 µM in [10]; 5.46 µM in assay [11].
Consider `CCOC(=O)CC(=O)Nc1cccc2[nH]cnc12`, for which the TGI in assay [1], in assay [2], in [3], in [4], in [5] and in [6] was > 100 µM in each case. Further, the TGI in [7], in assay [8], in assay [9], in [10] and in assay [11] was > 100 µM throughout.
On to `COc1cc2c(=O)cnoc2cc1O`, for which the TGI in [1], in [2], in [3], in assay [4], in assay [5] and in [6] was > 100 µM throughout. The TGI in assay [7], in assay [8], in assay [9], in assay [10] and in assay [11] was > 100 µM throughout.
Take `COc1ccc2cc(CN3CCC(C4CCNCC4)CC3)ccc2c1`: the TGI was 5.75 µM in [1]; 15.2 µM in [2]; 3.22 µM in [3]; 3.15 µM in assay [4]; 4.61 µM in [5]; > 22.3 µM in [6]. For the same compound, the TGI was 3.5 µM in assay [7]; 4.03 µM in [8]; 23 µM in assay [9]; 18.3 µM in assay [10]; 5.16 µM in [11].
Consider `FC(F)(F)c1cccc(-c2nc3ccccc3c3c2[C@@]2(N4CCCC4)CCCC[C@@H]32)c1`, for which the TGI in assay [1] was 55.2 µM; in assay [2], 37.4 µM; in assay [3], > 100 µM; in assay [4], > 100 µM; in assay [5], 41.4 µM; in assay [6], > 100 µM. Also, the TGI is 74.7 µM in assay [7]; > 100 µM in [8]; > 100 µM in assay [9]; > 100 µM in [10]; > 100 µM in [11].
For the compound `CC(C)=CCC/C(C)=C/CC/C(C)=C/CC/C(=C/CC/C(C)=C\CC/C(C)=C/CC/C(C)=C/CC/C(C)=C/Cc1cc(O)ccc1O)CO`, the TGI in assay [1] is 31.4 µM; in [2], 10.9 µM; in assay [3], > 100 µM; in assay [4], 4.88 µM; in assay [5], > 100 µM; in assay [6] it was 9.17 µM. Also, the TGI was 5.85 µM in assay [7]; 2.48 µM in assay [8]; > 100 µM in assay [9]; > 100 µM in [10]; > 37.6 µM in [11].
For the compound `c1c[nH]c(C23C4C5C6C4C2C6C53)n1` (centres undefined), the TGI in [1], in [2], in assay [3], in assay [4], in assay [5] and in [6] was > 100 µM each time. Also, the TGI in assay [7], in [8], in assay [9], in assay [10] and in assay [11] was > 100 µM in each case.
On to `O=CC12C3CCC1C2C(=O)C3` (centres undefined), for which the TGI in assay [1], in assay [2], in assay [3], in [4], in [5] and in assay [6] was > 100 µM in each case. Besides, the TGI in assay [7], in assay [8], in assay [9], in assay [10] and in assay [11] was > 100 µM in each case.
Take `CCCCCCCCCCC1OC([C@@H](O)CC[C@H](O)C2CC[C@@H](CCCCCCCC(O)CC3=CC(C)OC3=O)O2)CCC1O` (some centres undefined): the GI50 in assay [1] was 3.03 µM; in assay [2], 10.6 µM; in assay [3], 2.48 µM; in assay [4], 4.81 µM; in [6], 23.6 µM; in [7] it was 4.31 µM. For the same compound, the GI50 in assay [10] is 2.9 µM. The TGI was > 25 µM in [1]; > 25 µM in [2]; > 25 µM in [3]; > 17.5 µM in assay [4]; 15.4 µM in assay [5]; > 25 µM in assay [6]. In addition, the TGI in assay [7] was > 25 µM; in [8], > 25 µM; in assay [9], > 25 µM; in [10] it was > 25 µM; in [11], 16.5 µM.
Regarding `CN(C)CCCn1nc(N)c2nc3cc(Cl)ccc3nc21`, the TGI in [1] was 76.7 µM; in [2] it was 94.8 µM; in [3], > 100 µM; in [4], 47.4 µM; in [5] it was > 100 µM; in assay [6] it was > 100 µM. Also, the TGI in assay [7], in assay [8], in assay [9], in assay [10] and in [11] was > 100 µM each time.
On to `CCCCCCCCCCCCOCCCOP(=O)([O-])OCC[N+](C)(C)C`, for which the TGI in [1] was 52.8 µM; in assay [2] it was 25.6 µM; in [3], > 76.5 µM; in assay [4], 98.2 µM; in assay [5] it was 31.6 µM; in [6], 86 µM. Besides, the TGI in assay [7] was > 100 µM; in assay [8], 54.9 µM; in assay [9], > 76.7 µM; in [10], 46.9 µM; in [11], > 73.5 µM.
As to `CCCCCCCCCCCCCCCC(=O)N(CCCCCCCCCCC(=O)O)CC(O)C(O)C(OC1OC(CO)C(O)C(O)C1O)C(O)CO` (centres undefined), the TGI in assay [1] is > 100 µM; in [2], > 100 µM; in assay [3] it was 41.4 µM; in assay [4], 50.2 µM; in assay [5], 49.8 µM; in assay [6], 48.9 µM. For the same compound, the TGI in assay [7] was determined as 33.4 µM; in assay [8] it was 54.9 µM; in assay [9], 40.1 µM; in assay [10], 52.9 µM; in assay [11] it was 49.9 µM.
